The data set relates to Larvae and pupae of Anopheles gambiae, An. stephensi, Aedes albopictus and Ae. aegypti. The settings on record: after 24 hours post application; 0.03 g tyrosine in 200 ml breeding water; first to fourth-instar larvae.

Method: The pre-adult developmental stages were grown under these conditions: 28° C., 80% relative humidity and a photoperiod of 12 h light followed by 12 h dark.
Mosquito larvicidal/pupicidal tests were carried out based on the WHO standardized procedures and guidelines for larvicidal assay.
For each mosquito species, 24 hours before the assay to reduce the larval stress, we prepared 6 trays [15 cm (width), 15 cm (length) and 6.5 cm (deep)] one for each tested products, containing 200 ml of breeding water which includes 40 mosquito larvae (first, second, third, fourth-instars) and 10 pupae. Each assay comprised of 3 replicates.
Mortality was recorded every 30 minutes from beginning for the pre-adult developmental stages (larvae and pupe). […] The dead larvae and pupae were recorded, and the average percentage mortality was calculated.

As for `N[C@@H](Cc1ccc(O)cc1)C(=O)O` [tyrosine], the larval mortality result was “about 60%”.

Values taken from patent US10264787B1, “Natural mosquito larvicide” (BIOVECBLOK, s.r.l., priority 2017, dated 2019).
